Measurements: patent US20070105721A1, “Vinylogous 4-Hpyrones and their use in promoting plant growth” (priority 2003, published 2007)

Assays:
[1] = tested on: Podolepis canescens seeds; experiment: Compound 1a as a replacement for light or gibberellic acid; type: in vivo; details: 1, 10 or 100 ppb compound 1a; similar to gibberellic acid
Description: Three replicates of 50 seeds of Podolepis canescens were placed on Petri dishes containing filter paper moistened with de-ionised water (control), 1, 10 or 100 ppb compound 1a or 1000 ppm gibberellic acid. The Petri dishes were incubated at 12/12 hr alternating temperatures of 7/18° C., 13/26° C. or 18/33° C. and incubated in white light or continuous darkness. All of the treatments were added to the Petri dishes in complete darkness prior to moving to the incubators. Germination was recorded following 7 days incubation.

Hakea undulata seeds = experiment: Seed vigour enhancement (cumulative germination); type: in vivo; details: compound 1a at 100 ppb; FIG. 4
Description: (§1) For each species, five replicates of 20 seeds were placed on Petri dishes lined with seed germination paper. The Petri dishes were moistened with de-ionised water (control) or 100 ppb compound 1a. All species were incubated in constant darkness at 12/12 hr alternating temperatures of 7/18° C., 13/26° C. or 18/33° C. Germination was scored on radicle emergence and was recorded every 2-3 days until germination had ceased.

[2] = tested on: Gompholobium tomentosum seeds; experiment: Seed vigour enhancement (cumulative germination); type: in vivo; details: compound 1a at 100 ppb; FIG. 3
Description: as §1

Melaleuca carrii seeds = experiment: Seed vigour enhancement (cumulative germination); type: in vivo; details: compound 1a at 100 ppb; FIG. 3
Description: as §1

Emmenanthe penduliflora [3] = experiment: Germination on moist filter paper in petri dishes; type: in vivo; details: SW 1/10 dilution, compound 1a 10 ppb
[4] = tested on: somatic embryos induced from shoot and coleoptile explants of Baloskion tetraphyllum; experiment: Reactivity of compound 1a with somatic tissue; type: cell-based; details: for Frequency of shoot formation / Number of shoots: after culturing for 20 days, compound 1a at 10 ppb; on Frequency of shoot formation: tested at 0.01 ppm; on Number of shoots: tested at 0.01 ppm
Description: Seeds were cultured on PGR-free 1/2 MS medium for 4 weeks in darkness, then 3 mm coleoptile sections were removed under aseptic conditions and explanted to culture media supplemented with […] 2,4-dichlorophenoxyacetic acid and compound 1a (0, 1.0, 10, 100 ppb, respectively), with incubation in darkness at 22-25° C. Each plate was inoculated with 10 coleoptile sections and every treatment was replicated by 6 plates. […] Shoots of Baloskion tetraphyllum were cultured on 1/2 MS basal medium supplemented with […] in 16 hr light culture (PPFD of 30 μmolm^−2s^−1). After two months, whole shoots were trimmed of upper leaf and basal roots to 4 mm in length, then explanted to culture media with 1 mM 2,4-dichlorophenoxyacetic acid and supplemented with different concentrations of compound 1a (0, 1.0, 10, 100 ppb, respectively) and incubated in darkness at 22-25° C. Each plate was inoculated with 10 trimmed shoots and every treatment replicated with 4 plates. Somatic embryogenesis and plant regeneration was investigated at various intervals.

Nicotiana attenuate = experiment: Germination on moist filter paper in petri dishes; type: in vivo; details: SW 1/10 dilution, compound 1a tested at 100 ppb
[5] = tested on: Conostylis aculeata seeds; experiment: Native bioassay; type: in vivo
Description: (§2) Conostylis aculeata and Stylidium affine seeds were obtained from Nindethana seed service and stored before use. For testing of aqueous samples, three replicates of 20-30 sterilised seeds were added to UV sterilised petri dishes (90 mm), containing two Whatman No. 1 filter papers (7 cm) moistened with the filtered test solution (2.5 mL, 0.22 μm). MP water was used as a control for each experiment and dilutions of each sample were used to ensure the optimum concentration range for activity. Petri dishes were then sealed with parafilm and incubated in the dark at 20±1° C. The seeds were scored on a weekly basis with optimum germination achieved between 4-6 weeks.

Stylidium affine seeds = experiment: Native bioassay; type: in vivo
Description: as §2

Emmenanthe penduliflora [6] = experiment: Germination enhancement of species used in amenity horticulture; type: in vivo; details: compound 1a at 100 ppb; constant darkness at 18° C. Further: tested at 0.1 ppm.
Description: For each species, three replicates of 25 seeds were placed on Petri dishes lined with seed germination paper. The Petri dishes were moistened with de-ionised water (control) or 100 ppb compound 1a. All species were incubated in constant darkness at 18° C. Germination (radicle emergence) was recorded five times a week.

Microlaena stipoides = experiment: Germination enhancement of species used in rangeland pasture systems; type: in vivo; details: 100 ppb compound 1a; constant darkness at 18° C.; mean ± standard error
Description: Three replicates of 25 seeds were placed on Petri dishes lined with seed germination paper. The Petri dishes were moistened with de-ionised water (control) or 100 ppb compound 1a. All species were incubated in constant darkness at 18° C. Germination (radicle emergence) was recorded every 2-3 days until germination had ceased.

Verticordia densiflora = experiment: Soil-based germination trial; type: in vivo; details: SW 1/10 dilution; compound 1a 10 ppb; in soil; further: tested at 0.01 ppm
Description: (§3) For the soil-based germination trials, four replicates of 25 seeds were soaked in the test solution (water (control) or compound 1 analogues at 10 ppb) for 24 hours, dried in a laminar flow cabinet and sowed in a germination mix. The soil-sown seeds were incubated in the dark at 20±1° C. and were scored on a weekly basis.

Rhodocoma arida = experiment: Soil-based germination trial; type: in vivo; details: SW 1/10 dilution; compound 1a 10 ppb; in soil; 1a statistically significant with p < 0.08; further: tested at 0.01 ppm
Description: as §3

Grevillea polybotrya = experiment: Soil-based germination trial; type: in vivo; details: SW 1/10 dilution; compound 1a 10 ppb; in soil; further: tested at 0.01 ppm
Description: as §3

Brunonia australis = experiment: Soil-based germination trial; type: in vivo; details: SW 1/10 dilution; compound 1a 10 ppb; in soil; mean (SEM); further: tested at 0.01 ppm
Description: as §3

Passerina vulgaris = experiment: Soil-based germination trial; type: in vivo; details: SW 1/10 dilution; compound 1a 10 ppb; in soil; further: tested at 0.01 ppm
Description: as §3

Syncarpha vestita = experiment: Soil-based germination trial; type: in vivo; details: SW 1/10 dilution; compound 1a 10 ppb; in soil; further: tested at 0.01 ppm
Description: as §3

Ozothamnus cordifolium = experiment: Soil-based germination trial; type: in vivo; details: SW 1/10 dilution; compound 1a 10 ppb; in soil; further: tested at 0.01 ppm
Description: as §3

Conostylis candicans = experiment: Soil-based germination trial; type: in vivo; details: SW 1/10 dilution; compound 1a 10 ppb; in soil; further: tested at 0.01 ppm
Description: as §3

Scaevola thesioides = experiment: Soil-based germination trial; type: in vivo; details: SW 1/10 dilution; compound 1a 10 ppb; in soil; further: tested at 0.01 ppm
Description: as §3

[7] = 1/10 (of neat SW; of compound 1a 1 mg/L)
[8] = 1/100 (of neat SW; of compound 1a 1 mg/L)
[9] = Neat (neat SW; compound 1a 1 mg/L), mean (SEM)
[10] = compounds isolated from smoke, mean (SEM)

Cc1c2ccocc-2oc1=O [Compound 1a, 3-Methyl-2H-furo[2,3-c]pyran-2-one]
germination in the dark of light-requiring Podolepis canescens [1]: stimulates germination in the dark
germination rate (cumulative germination), Hakea undulata (Hakea undulata seeds): improved germination rate
germination rate (cumulative germination), Gompholobium tomentosum [2]: improved germination rate
germination rate (cumulative germination), Melaleuca carrii (Melaleuca carrii seeds): improved germination rate
Germination, Emmenanthe penduliflora (Emmenanthe penduliflora [3]): 82.0 (±4.2) b %
Frequency of shoot formation ([4]; Coleoptile explants): 37.0
Number of shoots ([4]; Coleoptile explants): 4.5
Frequency of shoot formation ([4]; Shoot explants): 58.6
Number of shoots ([4]; Shoot explants): 7.8
root formation and plantlet maturation ([4]; once somatic embryos are induced): significantly enhances
plantlet recovery and regeneration ([4]; somatic embryos transferred to hormone-free medium): significantly improved
effect on the induction phase of somatic embryogenesis ([4]; with 2,4-dichlorophenoxyacetic acid): no apparent effect
Germination, Nicotiana attenuate (Nicotiana attenuate): **44.4 (±1.9) b %
Conostylis aculeate germination ([5]; 1/10 000 of compound 1a 1 mg/L): 29.4 (3.4) %
Conostylis aculeate germination [5, 7]: 48.2 (4.0) %
Conostylis aculeate germination [5, 8]: 50.6 (6.5) %
Conostylis aculeate germination ([5]; 1/1000 of compound 1a 1 mg/L): 43.0 (4.5) %
Conostylis aculeate germination [5, 9]: 46.3 (3.1) %
Germination, Conostylis aculeata [5, 10]: 46.5 (4.9) %
Stylidium affine germination (Stylidium affine seeds; 1/10 000 of compound 1a 1 mg/L): 39.9 (10.9) %
Stylidium affine germination (Stylidium affine seeds; [7]): 83.4 (3.7) %
Stylidium affine germination (Stylidium affine seeds; [8]): 71.8 (1.7) %
Stylidium affine germination (Stylidium affine seeds; 1/1000 of compound 1a 1 mg/L): 70.9 (3.1) %
Stylidium affine germination (Stylidium affine seeds; [9]): 79.0 (3.1) %
Germination, Stylidium affine (Stylidium affine seeds; [10]): 67.9 (2.5) %
Germination, Emmenanthe penduliflora (Emmenanthe penduliflora [6]): 82.0 ± 4.2 b
Germination, Microlaena stipoides (Microlaena stipoides): 78.3 ± 6.7 b
Germination, Verticordia densiflora (Verticordia densiflora): 11.1 (±1.2) b %
Germination, Rhodocoma arida (Rhodocoma arida): *53.3 (±3.1) b %
Germination, Grevillea polybotrya (Grevillea polybotrya): 6.0 (±2.0) c %
Germination, Brunonia australis (Brunonia australis): 25.0 (±2.5) b %
Germination, Passerina vulgaris (Passerina vulgaris): 10.0 (±4.1) b %
Germination, Syncarpha vestita (Syncarpha vestita): 77.5 (±6.3) b %
Germination, Ozothamnus cordifolium (Ozothamnus cordifolium): 24.0 (±4.3) c %
Germination, Conostylis candicans (Conostylis candicans): 36.0 (±6.7) b %
Germination, Scaevola thesioides (Scaevola thesioides): 17.0 (±5.5) b %
